Measurements from patent publication US20020137929A1, “1 - (3-heterocyclylphenyl) isothiourea, -isourea, -guanidine and -amidine herbicidal agents” (Intellectual Property Department, BASF Aktiengesellschaft, priority 1998, published 2002).

Legend:
ECHCG (Barnyardgrass) = test: Postemergence herbicidal evaluation; format: in vivo, Echinochloa crus-galli; details: postemergence
In short: (§1)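 Herbicidal effect was judged by eye on a 0–9 scale covering stand, vigor, deformity, size and chlorosis, compared with controls, four to five weeks after seedlings about two weeks old were sprayed (40 psi, ~0.0156–0.500 kg/ha).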

ABUTH (Velvetleaf) = test: Preemergence herbicidal evaluation; format: in vivo, Abutilon theophrasti; details: rated 4-5 weeks after treatment
In short: (§2)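 Seeds were mixed with potting soil and planted on about one inch of soil, then sprayed with test compound in aqueous acetone at about 0.0156 to 0.500 kg per hectare. Plants grew under standard greenhouse care and were visually rated 0-9 against untreated controls 4-5 weeks post-treatment.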

[1] = system: IPOHE (Morningglory, Ivyleaf); test: Preemergence herbicidal evaluation; format: in vivo, Ipomoea hederacea; details: rated 4-5 weeks after treatment
In short: as §2

CASOB (Sicklepod) [2] = test: Postemergence herbicidal evaluation; format: in vivo, Cassia obtusifolia; details: postemergence
In short: as §1

MOOVA (Monochoria) = test: Preemergence weed control under flooded paddy conditions; format: in vivo, Monochoria vaginalis; details: rated 3-4 weeks after treatment
In short: (§3)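 Visual injury scored 0-9 against control three to four weeks post-treatment, greenhouse-grown. Application: acetone/water (50/50) solutions dosed directly into flood water (1.5-3 cm over silt loam, planted top 0.5 cm), roughly 0.0313 to 0.500 kg/ha active ingredient.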

CASOB (Sicklepod) [3] = test: Preemergence herbicidal evaluation; format: in vivo, Cassia obtusifolia; details: rated 4-5 weeks after treatment
In short: as §2

[4] = system: IPOHE (Morningglory, Ivyleaf); test: Postemergence herbicidal evaluation; format: in vivo, Ipomoea hederacea; details: postemergence
In short: as §1

[5] = system: SAGPY (Arrowhead (Pygmaea)); test: Preemergence weed control under flooded paddy conditions; format: in vivo, Sagittaria pygmaea; details: rated 3-4 weeks after treatment
In short: as §3

[6] = system: GLXMAW (Soybean, Williams); test: Postemergence herbicidal evaluation; format: in vivo, Glycine max, (L.) Merr. cv Williams; details: postemergence
In short: as §1

[7] = system: CHEAL (Lambsquarters, Common); test: Postemergence herbicidal evaluation; format: in vivo, Chenopodium album; details: postemergence
In short: as §1

[8] = system: CHEAL (Lambsquarters, Common); test: Preemergence herbicidal evaluation; format: in vivo, Chenopodium album; details: rated 4-5 weeks after treatment
In short: as §2

AMBEL (Ragweed, Common) [9] = test: Preemergence herbicidal evaluation; format: in vivo, Ambrosia artemisifolia; details: rated 4-5 weeks after treatment
In short: as §2

[10] = system: TRZAWR (Wheat, Winter, cv Riband); test: Postemergence herbicidal evaluation; format: in vivo, Triticum aestivum; details: postemergence
In short: as §1

AMBEL (Ragweed, Common) [11] = test: Postemergence herbicidal evaluation; format: in vivo, Ambrosia artemisifolia; details: postemergence
In short: as §1

[12] = system: GLXMAW (Soybean, Williams); test: Preemergence herbicidal evaluation; format: in vivo, Glycine max, (L.) Merr. cv Williams; details: rated 4-5 weeks after treatment
In short: as §2

ORYSAT (Rice, Tebonnet) = test: Preemergence herbicidal evaluation; format: in vivo, Oryza sativa, (L.) Tebonnet; details: rated 4-5 weeks after treatment
In short: as §2

Cn1c(C(F)(F)F)cc(=O)n(-c2cc(N=C3SCC(=O)N3CC(=O)OC3CCCC3)c(Cl)cc2F)c1=O [Compound 120, Cyclopentyl 2-{{2-chloro-5-[3,6-dihydro-3-methyl-2,6-dioxo-4-(trifluoromethyl)-1(2H)-pyrimidinyl]-4-fluorophenyl}imino}-4-oxo-3-thiazolidineacetate]
Herbicidal rating ECHCG (ECHCG (Barnyardgrass); rate 0.0156 kg/ha): 1.0
Herbicidal rating ECHCG (ECHCG (Barnyardgrass); rate 0.0313 kg/ha): 2.0
Herbicidal rating ECHCG (ECHCG (Barnyardgrass); rate 0.0625 kg/ha): 5.0
Preemergence herbicidal rating ABUTH (ABUTH (Velvetleaf); rate 0.0156 kg/ha): 0.0
Preemergence herbicidal rating ABUTH (ABUTH (Velvetleaf); rate 0.0313 kg/ha): 9.0
Preemergence herbicidal rating ABUTH (ABUTH (Velvetleaf); rate 0.0625 kg/ha): 9.0
Preemergence herbicidal rating ABUTH (ABUTH (Velvetleaf); rate 0.1250 kg/ha): 9.0
Preemergence herbicidal rating ABUTH (ABUTH (Velvetleaf); rate 0.2500 kg/ha): 9.0
Preemergence herbicidal rating IPOHE ([1]; rate 0.0156 kg/ha): 0.0
Preemergence herbicidal rating IPOHE ([1]; rate 0.0313 kg/ha): 0.0
Preemergence herbicidal rating IPOHE ([1]; rate 0.0625 kg/ha): 0.0
Preemergence herbicidal rating IPOHE ([1]; rate 0.1250 kg/ha): 4.0
Preemergence herbicidal rating IPOHE ([1]; rate 0.2500 kg/ha): 9.0
Herbicidal rating CASOB (CASOB (Sicklepod) [2]; rate 0.0156 kg/ha): 3.0
Herbicidal rating CASOB (CASOB (Sicklepod) [2]; rate 0.0313 kg/ha): 5.0
Herbicidal rating CASOB (CASOB (Sicklepod) [2]; rate 0.0625 kg/ha): 8.0
herbicidal effect rating, MOOVA (MOOVA (Monochoria); 0.0313 kg/ha): 8.5
herbicidal effect rating, MOOVA (MOOVA (Monochoria); 0.0625 kg/ha): 9.0
herbicidal effect rating, MOOVA (MOOVA (Monochoria); 0.1250 kg/ha): 9.0
herbicidal effect rating, MOOVA (MOOVA (Monochoria); 0.2500 kg/ha): 9.0
Preemergence herbicidal rating CASOB (CASOB (Sicklepod) [3]; rate 0.0156 kg/ha): 0.0
Preemergence herbicidal rating CASOB (CASOB (Sicklepod) [3]; rate 0.0313 kg/ha): 0.0
Preemergence herbicidal rating CASOB (CASOB (Sicklepod) [3]; rate 0.0625 kg/ha): 3.0
Preemergence herbicidal rating CASOB (CASOB (Sicklepod) [3]; rate 0.1250 kg/ha): 4.0
Preemergence herbicidal rating CASOB (CASOB (Sicklepod) [3]; rate 0.2500 kg/ha): 4.0
Herbicidal rating IPOHE ([4]; rate 0.0156 kg/ha): 9.0
Herbicidal rating IPOHE ([4]; rate 0.0313 kg/ha): 9.0
Herbicidal rating IPOHE ([4]; rate 0.0625 kg/ha): 9.0
herbicidal effect rating, SAGPY ([5]; 0.0313 kg/ha): 0.0
herbicidal effect rating, SAGPY ([5]; 0.0625 kg/ha): 0.0
herbicidal effect rating, SAGPY ([5]; 0.1250 kg/ha): 2.0
herbicidal effect rating, SAGPY ([5]; 0.2500 kg/ha): 7.5
Herbicidal rating GLXMAW ([6]; rate 0.0156 kg/ha): 7.5
Herbicidal rating GLXMAW ([6]; rate 0.0313 kg/ha): 9.0
Herbicidal rating GLXMAW ([6]; rate 0.0625 kg/ha): 9.0
Herbicidal rating CHEAL ([7]; rate 0.0156 kg/ha): 9.0
Herbicidal rating CHEAL ([7]; rate 0.0313 kg/ha): 9.0
Herbicidal rating CHEAL ([7]; rate 0.0625 kg/ha): 9.0
Preemergence herbicidal rating CHEAL ([8]; rate 0.0156 kg/ha): 9.0
Preemergence herbicidal rating CHEAL ([8]; rate 0.0313 kg/ha): 9.0
Preemergence herbicidal rating CHEAL ([8]; rate 0.0625 kg/ha): 9.0
Preemergence herbicidal rating CHEAL ([8]; rate 0.1250 kg/ha): 9.0
Preemergence herbicidal rating CHEAL ([8]; rate 0.2500 kg/ha): 9.0
Preemergence herbicidal rating AMBEL (AMBEL (Ragweed, Common) [9]; rate 0.0156 kg/ha): 0.0
Preemergence herbicidal rating AMBEL (AMBEL (Ragweed, Common) [9]; rate 0.0313 kg/ha): 0.0
Preemergence herbicidal rating AMBEL (AMBEL (Ragweed, Common) [9]; rate 0.0625 kg/ha): 3.0
Preemergence herbicidal rating AMBEL (AMBEL (Ragweed, Common) [9]; rate 0.1250 kg/ha): 4.0
Preemergence herbicidal rating AMBEL (AMBEL (Ragweed, Common) [9]; rate 0.2500 kg/ha): 4.0
Herbicidal rating TRZAWR ([10]; rate 0.0156 kg/ha): 3.5
Herbicidal rating TRZAWR ([10]; rate 0.0313 kg/ha): 4.5
Herbicidal rating TRZAWR ([10]; rate 0.0625 kg/ha): 5.0
Herbicidal rating AMBEL (AMBEL (Ragweed, Common) [11]; rate 0.0156 kg/ha): 9.0
Herbicidal rating AMBEL (AMBEL (Ragweed, Common) [11]; rate 0.0313 kg/ha): 9.0
Herbicidal rating AMBEL (AMBEL (Ragweed, Common) [11]; rate 0.0625 kg/ha): 9.0
Preemergence herbicidal rating GLXMAW ([12]; rate 0.0156 kg/ha): 0.0
Preemergence herbicidal rating GLXMAW ([12]; rate 0.0313 kg/ha): 0.0
Preemergence herbicidal rating GLXMAW ([12]; rate 0.0625 kg/ha): 0.0
Preemergence herbicidal rating GLXMAW ([12]; rate 0.1250 kg/ha): 0.0
Preemergence herbicidal rating GLXMAW ([12]; rate 0.2500 kg/ha): 3.0
Preemergence herbicidal rating ORYSAT (ORYSAT (Rice, Tebonnet); rate 0.0156 kg/ha): 0.0
Preemergence herbicidal rating ORYSAT (ORYSAT (Rice, Tebonnet); rate 0.0313 kg/ha): 0.0
Preemergence herbicidal rating ORYSAT (ORYSAT (Rice, Tebonnet); rate 0.0625 kg/ha): 0.0
Preemergence herbicidal rating ORYSAT (ORYSAT (Rice, Tebonnet); rate 0.1250 kg/ha): 0.0
Preemergence herbicidal rating ORYSAT (ORYSAT (Rice, Tebonnet); rate 0.2500 kg/ha): 0.0
